Test results taken from the PolyMetriX glass transition set.
± gives the standard deviation of the reports.

Experiments:
[1] = not given; remark: listed apart in the source

Row | Structure (SMILES) | glass transition temperature [°C] | glass transition temperature [1] [°C]
1 | *c1ccc2c(c1)C(=O)N(c1ccc(-c3ccc(N4C(=O)c5ccc(C(*)(C(F)(F)F)C(F)(F)F)cc5C4=O)cc3-c3cc(C(F)(F)F)cc(C(F)(F)F)c3)c(-c3cc(C(F)(F)F)cc(C(F)(F)F)c3)c1)C2=O (repeat unit) | 263.00 | 
2 | *Oc1ccc2c(c1)C(=O)N(c1ccc(Sc3ccc(N4C(=O)c5ccc(*)cc5C4=O)cc3)cc1)C2=O (repeat unit) | 269.00 | 
3 | *c1ccc2c(c1)C(=O)N(c1ccc(OCC(F)(F)C(F)(F)C(F)(F)C(F)(F)C(F)(F)C(F)(F)C(F)(F)F)c(N3C(=O)c4ccc(C(*)(C(F)(F)F)C(F)(F)F)cc4C3=O)c1)C2=O (repeat unit) | 226.00 | 
4 | *c1ccc2c(c1)C(=O)N(c1ccc(OCC(F)(F)C(F)(F)C(F)(F)C(F)(F)C(F)(F)C(F)(F)C(F)(F)C(F)(F)C(F)(F)C(F)(F)F)c(N3C(=O)c4ccc(C(*)(C(F)(F)F)C(F)(F)F)cc4C3=O)c1)C2=O (repeat unit) | 189.00 | 
5 | *C1=C(Cl)C(=O)N(c2ccc(Cc3ccc(N4C(=O)C(Cl)=C(Oc5ccc(C(C)(C)c6ccc(*)cc6)cc5)C4=O)cc3)cc2)C1=O (repeat unit) | 173.00 | 
6 | *C(=O)Nc1ccc2ccccc2c1-c1c(NC(=O)c2ccc3c(c2)C(=O)N(c2ccc(Oc4ccc(N5C(=O)c6ccc(*)cc6C5=O)cc4)cc2)C3=O)ccc2ccccc12 (repeat unit) | 287.80 | 
7 | *c1ccc2c(c1)C(=O)N(c1ccc(Oc3c(F)c(F)c(-c4c(F)c(F)c(Oc5ccc(N6C(=O)c7ccc(C(*)(C(F)(F)F)C(F)(F)F)cc7C6=O)cc5)c(F)c4F)c(F)c3F)cc1)C2=O (repeat unit) | 271.20 | 
8 | *c1ccc(Oc2ccc(Oc3ccc(-n4c(=O)c5ccc6c(=O)n(*)c(=O)c6c5c4=O)cc3)cc2)cc1 (repeat unit) | 292.00 | 
9 | *c1ccc2c(c1)C(=O)N(c1ccc(-c3ccc(N4C(=O)c5ccc(C(*)(C(F)(F)F)C(F)(F)F)cc5C4=O)cc3C)c(C)c1)C2=O (repeat unit) | 325.00 | 
10 | *C(=O)c1ccc2c(c1)C(=O)N(c1ccc(C)c(N3C(=O)c4ccc(*)cc4C3=O)c1C)C2=O (repeat unit) | 384.00 | 
11 | *c1ccc(-c2ccc(N3C(=O)c4ccc(-c5ccc6c(c5)C(=O)N(*)C6=O)cc4C3=O)cc2OC(F)(F)F)c(OC(F)(F)F)c1 (repeat unit) | 335.00 | 
12 | *c1ccc2c(c1)C(=O)N(c1cc(C(F)(F)F)cc(N3C(=O)c4ccc(C(*)(C(F)(F)F)C(F)(F)F)cc4C3=O)c1OC(c1c(F)c(F)c(F)c(F)c1F)c1c(F)c(F)c(F)c(F)c1F)C2=O (repeat unit) | 321.70 | 
13 | *c1ccc(-c2ccc(N3C(=O)c4cc5c(cc4C3=O)C(C(F)(F)F)(C(F)(F)F)c3cc4c(cc3O5)C(=O)N(*)C4=O)cc2OC(C)(F)F)c(OC(C)(F)F)c1 (repeat unit) | 363.00 | 
14 | *c1cc(N2C(=O)c3ccc(-c4ccc5c(c4)C(=O)N(*)C5=O)cc3C2=O)ccc1OCC(F)(F)C(F)(F)C(F)(F)F (repeat unit) | 300.00 | 
15 | *Oc1ccc(C(c2ccc(Oc3ccc4c(c3)C(=O)N(CCCCN3C(=O)c5ccc(*)cc5C3=O)C4=O)cc2)(C(F)(F)F)C(F)(F)F)cc1 (repeat unit) | 180.00 | 
16 | *c1ccc2c(c1)C(=O)N(c1cc(N3C(=O)c4ccc(*)cc4C3=O)cc(C(F)(F)F)c1)C2=O (repeat unit) | 329.00 | 
17 | *Oc1cccc(Oc2ccc(Oc3ccc4c(c3)C(=O)N(c3ccc(Oc5cccc(Oc6ccc(N7C(=O)c8ccc(*)cc8C7=O)cc6)c5)cc3)C4=O)cc2)c1 (repeat unit) | 184.00 | 
18 | *Oc1cccc(Oc2ccc(Oc3cccc4c3C(=O)N(c3ccc(Oc5cccc(Oc6ccc(N7C(=O)c8cccc(*)c8C7=O)cc6)c5)cc3)C4=O)cc2)c1 (repeat unit) | 198.00 | 
19 | *c1ccc(P(=O)(c2ccccc2)c2ccc(-n3c(=O)c4cc5c(=O)n(*)c(=O)c5cc4c3=O)cc2)cc1 (repeat unit) | 425.00 | 
20 | *Oc1cccc(Sc2ccc(Oc3ccc4c(c3)C(=O)N(c3cccc(N5C(=O)c6ccc(*)cc6C5=O)c3)C4=O)cc2)c1 (repeat unit) | 209.00 | 
21 | *C(=O)c1ccc2c(c1)C(=O)N(c1ccc(Oc3cccc(N4C(=O)c5ccc(*)cc5C4=O)c3)cc1)C2=O (repeat unit) | 252.00 | 
22 | *C1=C(Cl)C(=O)N(c2ccc(Cc3ccc(N4C(=O)C(Cl)=C(Oc5ccc(*)cc5)C4=O)cc3)cc2)C1=O (repeat unit) | 192.00 | 
23 | *Sc1cccc2c1C(=O)N(c1cc(Cc3ccc(N4C(=O)c5cccc(*)c5C4=O)c(C)c3)ccc1C)C2=O (repeat unit) | 274.00 | 
24 | *c1ccc2c(c1)C(=O)N(c1ccc(-c3ccc(N4C(=O)c5ccc(C(*)(C(F)(F)F)C(F)(F)F)cc5C4=O)cc3C#N)c(C#N)c1)C2=O (repeat unit) | 331.00 | 
25 | *C(=O)c1cccc(Cc2ccc3c(c2)C(=O)N(c2cc(N4C(=O)c5ccc(*)cc5C4=O)cc(C(F)(F)F)c2)C3=O)c1 (repeat unit) | 253.00 | 

Row | Structure (SMILES) | glass transition temperature [°C] | glass transition temperature [1] [°C]
26 | *Oc1cccc(Sc2ccc(Oc3cccc4c3C(=O)N(c3ccc(Oc5cccc(Oc6ccc(N7C(=O)c8cccc(*)c8C7=O)cc6)c5)cc3)C4=O)cc2)c1 (repeat unit) | 230.00 | 
27 | *c1cc(N2C(=O)c3ccc(-c4ccc5c(c4)C(=O)N(*)C5=O)cc3C2=O)ccc1OCC(F)(F)C(F)(F)C(F)(F)C(F)(F)C(F)(F)C(F)(F)C(F)(F)C(F)(F)C(F)(F)C(F)(F)F (repeat unit) | 230.00 | 
28 | *Oc1ccc2c(c1)C(=O)N(c1cccc(C(=O)c3cccc(N4C(=O)c5ccc(*)cc5C4=O)c3)c1)C2=O (repeat unit) | 239.00 ± 4 | 
29 | *Sc1ccc2c(c1)C(=O)N(c1ccc(Oc3ccc(N4C(=O)c5cccc(*)c5C4=O)cc3)cc1)C2=O (repeat unit) | 267.50 ± 8.4 | 
30 | *CC(C)(/C=C(/*)C)C(=O)OC (repeat unit) |  | 24.00
31 | *CCN(*)C(=O)CC(C)C (repeat unit) |  | 30.00
32 | *c1ccc(Oc2ccc(C3(c4ccc(Oc5ccc(N6C(=O)c7ccc(Oc8ccc(C9(c%10ccc(Oc%11ccc%12c(c%11)C(=O)N(*)C%12=O)cc%10)CCC(C(C)(C)C)CC9)cc8)cc7C6=O)cc5)cc4)CC4CC3C3CCCC43)cc2)cc1 (repeat unit) |  | 257.00
33 | *c1ccc(Oc2ccc(N3C(=O)c4ccc(Oc5ccc6c(c5)C(=O)N(c5ncc(*)s5)C6=O)cc4C3=O)cc2)cc1 (repeat unit) |  | 300.00
34 | */C=C/c1ccc2c3ccc(*)cc3n(-c3ccc(OCCCCCCCCCC)c(OCCCCCCCCCC)c3)c2c1 (repeat unit) |  | 95.00
35 | *c1ccc(Oc2ccc(N3C(=O)c4cccc(Oc5ccc(Oc6ccc(Oc7cccc8c7C(=O)N(*)C8=O)cc6)cc5)c4C3=O)cc2)cc1 (repeat unit) |  | 239.00
36 | *c1ccc(-c2ccc(N3C(=O)c4ccc(Oc5ccc6c(c5)C(=O)N(*)C6=O)cc4C3=O)cc2C(F)(F)F)c(C(F)(F)F)c1 (repeat unit) |  | 275.00
37 | *C(=O)Nc1cc(NC(=O)c2ccc3c(c2)C(=O)N(c2cc(-c4nc5ccccc5o4)cc(N4C(=O)c5ccc(*)cc5C4=O)c2)C3=O)cc(-c2nc3ccccc3[nH]2)c1 (repeat unit) |  | 371.00
38 | *CCOP(=O)(/N=N/c1ccc(Oc2ccc(/N=N/P(=O)(O*)OCC)cc2)cc1)OCC (repeat unit) |  | 22.00
39 | *Nc1cccc(NC(=O)CCCCCCC(*)=O)c1 (repeat unit) |  | 115.50
40 | *c1ccc(-c2nc3cc(Oc4ccc(NC(=O)CN5C(=O)c6ccc(C(c7ccc8c(c7)C(=O)N(CC(=O)Nc7ccc(Oc9ccc%10nc(-c%11ccccc%11)c(*)nc%10c9)cc7)C8=O)(C(F)(F)F)C(F)(F)F)cc6C5=O)cc4)ccc3nc2-c2ccccc2)cc1 (repeat unit) |  | 280.00
41 | *OC(=O)CCCCCCCCC(=O)OC1COC2C(*)COC12 (repeat unit) |  | 3.00
42 | *Oc1c(C)cc(-c2cc(C)c(OC(=O)CCCCCC(*)=O)c(C)c2)cc1C (repeat unit) |  | 96.00
43 | */C=C/C1CC(*)C(C#N)([Si](C)(C)O[Si](C)(C)O[Si](C)(C)C)C1 (repeat unit) |  | 47.00
44 | *c1ccc(Oc2ccc(C(=O)c3ccc(Oc4ccc(-c5c6c(c(*)c7ccccc57)C(=O)N(c5ccc(C(F)(F)F)cc5)C6=O)cc4)cc3)cc2)cc1 (repeat unit) |  | 260.00
45 | *CC(*)OC(=O)c1ccc(C(C)C)cc1 (repeat unit) |  | 67.70
46 | *c1ccc(Oc2ccc(C(c3ccc(Oc4ccc(N5C(=O)c6ccc7c8c(ccc(c68)C5=O)C(=O)N(*)C7=O)cc4)c(S(=O)(=O)O)c3)(C(F)(F)F)C(F)(F)F)cc2S(=O)(=O)O)cc1 (repeat unit) |  | 270.00
47 | *Oc1ccc(C(c2ccc(OC(*)=O)cc2)C2C3CCC(C3)C2c2ccccc2)cc1 (repeat unit) |  | 196.00
48 | *Oc1c(C)cc(*)cc1-c1ccccc1 (repeat unit) |  | 180.00
49 | *OC(=O)Nc1ccc(C)c(NC(=O)OC2CCN(c3ccc(/C=C/C4=CC(=C(C#N)C#N)C=C(/C=C/c5ccc(N6CCC(*)CC6)s5)O4)s3)CC2)c1 (repeat unit) |  | 212.00
50 | *CCCCCCCCOc1ccc(C(C)(C)c2ccc(O*)cc2)cc1 (repeat unit) |  | 19.60
